Experimental data reported in patent US20220370513A1, “COMPOSITION, ANTIOXIDANT AGENT, ANTISACCHARIFICATION AGENT, NEURITE OUTGROWTH PROMOTER, AND COGNITIVE FUNCTION IMPROVER” (YAMADA BEE COMPANY, INC., priority 2019, published 2022).

Test: ORAC (oxygen radical absorption capacity) test
Format: biochemical
Conditions: Trolox equivalent
Description: The antioxidation capacity of the combination of propolis and each sample was verified by an oxygen radical absorption capacity (ORAC) test. The following samples were used.
Propolis: ethanol extract powder (Brazilian green propolis, containing arginine as an excipient)
Phosphatidylserine: synthetic product
Coffee fruit extract: water/ethanol extract powder
Gotu kola extract: water extract powder (containing less than 10% of maltodextrin as an excipient)
Each sample was dissolved in a 50% ethanol aqueous solution. […]
The obtained test solution was diluted with a 75 mM phosphate buffer and put into a 96-well plate, and a fluorescein solution was added thereto. When the 96-well plate was heated to 37° C., AAPH (2,2′-azobis(2-amidinopropane)dihydrochloride) was added, and the fluorescence intensity decay time was measured with a microplate reader every 5 minutes for 1.5 hours. A standard curve was created using Trolox as a standard reagent, and the antioxidation power of each sample was calculated as a Trolox equivalent (μmol TE/g).
In Table 1, the expected value is a sum of ORAC values of respective components alone in each combination. The rate of increase is a value obtained by multiplying a result obtained by dividing the measured value by the expected value by 100.

Substance: Phosphatidylserine
- Single raw material ORAC: 12 μmol TE/g
